IC50 data for 28 molecules are collected here from patent US20110190503A1, “Thiazolopyridin-2-yloxy-phenyl and thiazolopyrazin-2-yloxy-phenyl amines as modulators of leukotriene A4 hydrolase” (Janssen Pharmaceutical NV, priority 2008, published 2011).

Experiment [1] deals with T1, recombinant human LTA4 hydrolase (rhLTA4H) (Homo sapiens, UniProt P09960).
T1 construct: made in house; host or cells: Spodoptera frugiperda (Sf-9) cells, recombinant baculovirus (pFastBac1)
T1 sequence (P09960 1-611): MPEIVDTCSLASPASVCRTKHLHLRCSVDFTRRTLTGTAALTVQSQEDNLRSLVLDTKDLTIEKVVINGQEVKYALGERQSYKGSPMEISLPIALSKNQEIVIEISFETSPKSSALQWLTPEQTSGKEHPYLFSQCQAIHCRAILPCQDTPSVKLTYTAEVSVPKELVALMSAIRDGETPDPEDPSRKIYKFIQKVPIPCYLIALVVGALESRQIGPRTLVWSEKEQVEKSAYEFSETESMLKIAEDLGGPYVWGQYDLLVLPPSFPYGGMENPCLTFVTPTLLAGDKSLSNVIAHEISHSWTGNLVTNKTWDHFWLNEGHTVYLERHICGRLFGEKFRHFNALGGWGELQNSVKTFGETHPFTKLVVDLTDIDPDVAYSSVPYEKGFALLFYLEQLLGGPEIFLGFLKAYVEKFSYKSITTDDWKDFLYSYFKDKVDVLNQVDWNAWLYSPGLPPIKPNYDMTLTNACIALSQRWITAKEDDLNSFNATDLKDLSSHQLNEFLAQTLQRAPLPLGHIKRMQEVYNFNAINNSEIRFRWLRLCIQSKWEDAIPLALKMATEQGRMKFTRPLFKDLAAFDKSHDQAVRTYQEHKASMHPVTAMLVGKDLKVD
Description: Recombinant human LTA4 hydrolase assay for LTA4 hydrolase inhibitor activity. The class given is biochemical. To be noted: rhLTA4H, LTA4 substrate, LTB4 by immunoassay; single determination or average; read-out: IC50. The method, boiled down: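 Recombinant human LTA4H from baculovirus-infected Sf-9 cells (10 ng) pre-incubated 10 min at rt with compound (10% DMSO in dilutions), then reacted with free-acid LTA4 for 30 min at rt. LTB4 measured by ELISA; IC50 by nonlinear regression. Values are single determinations or averages.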

Experiment [2] has as its system LTB4 production by calcium ionophore-stimulated murine blood. Description: LTB4 production by calcium ionophore-stimulated murine blood for LTA4H inhibitor activity. To be noted: Mus musculus; murine blood diluted 1 in 15, calcium ionophore A23187, LTB4 by immunoassay; read-out: IC50. The class given is cell-based, CD-1 mice. As for the experimental part: Assay 2: LTB4 Production by Calcium Ionophore-Stimulated Murine Blood for LTA4H Inhibitor Activity
CD-1 mice were sacrificed, and blood was collected in heparin-containing syringes by cardiac puncture. […] After the microtiter plate contents were incubated for 15 min at 37° C. in a humidified incubator, calcium ionophore A23187 (Sigma Chemical Co., St. Louis, Mo.) was added to each sample well (final concentration=7 μg/mL). The incubation was continued under the same conditions for an additional 30 min to allow LTB4 formation. The reaction was terminated by centrifugation (833×g, 10 min at 4° C.), and supernatants were analyzed for LTB4 by a commercially available enzyme-linked immunoassay (Cayman Chemical Co.) according to the manufacturer's instructions. Positive controls, under essentially identical conditions but without addition of an inhibitor compound, and negative unstimulated controls, containing all assay components except calcium ionophore, were routinely run in each experiment. […] The values presented here are the result of a single determination or an average of two or more determinations, as indicated in parentheses following each value. For compounds tested three or more times, the average value is followed by the standard deviation

As for `CC(=O)N1C[C@@H]2C[C@H]1CN2Cc1ccc(Oc2nc3cccnc3s2)cc1` [Example 124, 2-(4-{[(1S,4S)-5-Acetyl-2,5-diazabicyclo[2.2.1]hept-2-yl]methyl}phenoxy)[1,3]thiazolo[5,4-b]pyridine], the IC50 (usually the concentration that gives 50% inhibition) in experiment [1] is 220 nM; in experiment [2], 700 nM.
On the same counts, the results for `c1cnc2nc(Oc3ccc(CNCCN4CCCCC4)cc3)sc2c1` [Example 91, 2-Piperidin-1-yl-N-[4-([1,3]thiazolo[4,5-b]pyridin-2-yloxy)benzyl]ethanamine] are 39 nM and 680 nM.
As for `FC1CCN(Cc2ccc(Oc3nc4ncccc4s3)cc2)CC1` [Example 96, 2-{4-[(4-Fluoropiperidin-1-yl)methyl]phenoxy}[1,3]thiazolo[4,5-b]pyridine], the IC50 in experiment [1] came to 24 nM; in experiment [2], 37 nM.
Consider `OC1(c2ccccc2)CCN(CCOc2ccc(Oc3nc4nccnc4s3)cc2)CC1` [Example 22, 4-Phenyl-1-{2-[4-([1,3]thiazolo[4,5-b]pyrazin-2-yloxy)phenoxy]ethyl}piperidin-4-ol], for which the figures for the IC50 in experiment [1] and in experiment [2] were 62 nM and 200 nM, respectively.
Turning to `c1ccc(CC2CCN(CCOc3ccc(Oc4nc5ncccc5s4)cc3)CC2)cc1` [Example 28, 2-{4-[2-(4-Benzylpiperidin-1-yl)ethoxy]phenoxy}[1,3]thiazolo[4,5-b]pyridine], the IC50 was 52 nM in experiment [1] and 380 nM in experiment [2].
Turning to `FC1(F)CCN(Cc2ccc(Oc3nc4ncccc4s3)cc2)C1` [Example 93, 2-{4-[(3,3-Difluoropyrrolidin-1-yl)methyl]phenoxy}[1,3]thiazolo[4,5-b]pyridine], the IC50 in experiment [1] stood at 55 nM; in experiment [2], 520 nM.
On the same counts, the results for `CS(=O)(=O)N[C@H]1C[C@H]2CC[C@@H](C1)N2Cc1ccc(Oc2nc3ncccc3s2)cc1` [Example 182, meso-N-[(3-endo)-8-{[4-([1,3]Thiazolo[4,5-b]pyridin-2-yloxy)phenyl]methyl}-8-azabicyclo[3.2.1]oct-3-yl]methanesulfonamide] are 1.9 nM and 24 nM.
With `c1cnc2nc(Oc3ccc(CN4CCC(N5CCCCC5)CC4)cc3)sc2c1` [Example 256, 1′-[4-([1,3]Thiazolo[4,5-b]pyridin-2-yloxy)benzyl]-1,4′-bipiperidine], the IC50 in experiment [1] stood at 87 nM; in experiment [2] it was 178 nM.
On the same counts, the results for `c1cnc(OC2CCN(Cc3ccc(Oc4nc5ncccc5s4)cc3)CC2)nc1` [Example 99, 2-(4-{[4-(Pyrimidin-2-yloxy)piperidin-1-yl]methyl}phenoxy)[1,3]thiazolo[4,5-b]pyridine] are 2 nM and 8 nM.
The corresponding values for `CC(=O)N1C[C@@H]2C[C@H]1CN2Cc1ccc(Oc2nc3ncc(F)cc3s2)cc1` [Example 128, 2-(4-{[(1S,4S)-5-Acetyl-2,5-diazabicyclo[2.2.1]hept-2-yl]methyl}phenoxy)-6-fluoro[1,3]thiazolo[4,5-b]pyridine] are 23 nM and 5 nM.
For `OC1(c2ccccn2)CCN(Cc2ccc(Oc3nc4ncccc4s3)cc2)CC1` [Example 101, 4-Pyridin-2-yl-1-[4-([1,3]thiazolo[4,5-b]pyridin-2-yloxy)benzyl]piperidin-4-ol], the IC50 in experiment [1] worked out at 11 nM; in experiment [2], 3 nM.
On the same counts, the results for `CS(=O)(=O)NC1CCN(CCOc2ccc(Oc3nc4ncccc4s3)cc2)CC1` [Example 163, N-[1-(2-{[4-([1,3]Thiazolo[4,5-b]pyridin-2-yloxy)phenyl]oxy}ethyl)piperidin-4-yl]methanesulfonamide] are 6 nM and 31 nM.
`c1cncc(OC2CCN(CCOc3ccc(Oc4nc5ncccc5s4)cc3)CC2)c1` [Example 4, 2-(4-{2-[4-(Pyridin-3-yloxy)piperidin-1-yl]ethoxy}phenoxy)[1,3]thiazolo[4,5-b]pyridine]: the IC50 is 9 nM in experiment [1] and 54 nM in experiment [2].
Regarding `Clc1cnc2nc(Oc3ccc(CN4CCCCC4)cc3)sc2c1` [Example 279, 6-Chloro-2-(4-piperidin-1-ylmethyl-phenoxy)[1,3]thiazolo[4,5-b]pyridine], the IC50 in experiment [2] was 550 nM.
`NC(=O)N1[C@@H]2CC[C@H]1CN(Cc1ccc(Oc3nc4ncccc4s3)cc1)C2` [Example 171, meso-3-{[4-([1,3]Thiazolo[4,5-b]pyridin-2-yloxy)phenyl]methyl}-3,8-diazabicyclo[3.2.1]octane-8-carboxamide]: in experiment [1], the IC50 was 42 nM.
In the case of `COc1ccccc1C1CCN(CCOc2ccc(Oc3nc4cccnc4s3)cc2)CC1` [Example 41, 2-(4-{2-[4-(2-Methoxyphenyl)piperidin-1-yl]ethoxy}phenoxy)[1,3]thiazolo[5,4-b]pyridine], the IC50 in experiment [1] turned out to be 340 nM.
For the molecule `NC(=O)N1C[C@@H]2C[C@H]1CN2Cc1ccc(Oc2nc3ncc(Cl)cc3s2)cc1` [Example 193, (1S,4S)-5-({4-[(6-Chloro[1,3]thiazolo[4,5-b]pyridin-2-yl)oxy]phenyl}methyl)-2,5-diazabicyclo[2.2.1]heptane-2-carboxamide], the IC50 in experiment [1] is 58 nM.
As for `CN1CCN(Cc2ccc(Oc3nc4cnccc4s3)cc2)CC1=O` [Example 224, 1-Methyl-4-[4-([1,3]thiazolo[4,5-c]pyridin-2-yloxy)benzyl]piperazin-2-one], in experiment [1], the IC50 was determined as 4850 nM.
For the molecule `CC(=O)N1[C@@H]2CC[C@H]1C[C@H](NCc1ccc(Oc3nc4ncc(C)cc4s3)cc1)C2` [Example 181, meso-(3-exo)-8-Acetyl-N-({4-[(6-methyl[1,3]thiazolo[4,5-b]pyridin-2-yl)oxy]phenyl}methyl)-8-azabicyclo[3.2.1]octan-3-amine], the IC50 in experiment [1] stood at 332 nM.
Take `O=C1CCN(CCc2ccc(Oc3nc4nccnc4s3)cc2)CCN1` [Example 177, 1-{2-[4-([1,3]Thiazolo[4,5-b]pyrazin-2-yloxy)phenyl]ethyl}-1,4-diazepan-5-one]: the IC50 in experiment [1] worked out at 624 nM.
For `NC(=O)N1C[C@@H]2C[C@H]1CN2CCc1ccc(Oc2nc3cccnc3s2)cc1` [Example 78, (1S,4S)-5-{2-[4-([1,3]Thiazolo[5,4-b]pyridin-2-yloxy)phenyl]ethyl}-2,5-diazabicyclo[2.2.1]heptane-2-carboxamide], in experiment [1], the IC50 stood at 160 nM.
As to `CC(=O)N1CC(CN(C)Cc2ccc(Oc3nc4ncc(Cl)cc4s3)cc2)C1` [Example 247, 1-(1-Acetylazetidin-3-yl)-N-{4-[(6-chloro[1,3]thiazolo[4,5-b]pyridin-2-yl)oxy]benzyl}-N-methylmethanamine], in experiment [1], the IC50 was found to be 33 nM.
Consider `CC(=O)N1CCCN(Cc2ccc(Oc3nc4ccncc4s3)cc2)CC1` [Example 226, 2-{4-[(4-Acetyl-1,4-diazepan-1-yl)methyl]phenoxy}[1,3]thiazolo[5,4-c]pyridine], for which the IC50 in experiment [1] was 1210 nM.
As to `Cc1cnc2nc(Oc3ccc(CN4CCC(C(=O)N(C)C)CC4)cc3)sc2c1` [Example 172, N,N-Dimethyl-1-({4-[(6-methyl[1,3]thiazolo[4,5-b]pyridin-2-yl)oxy]phenyl}methyl)piperidine-4-carboxamide], the IC50 in experiment [1] stood at 26 nM.
Take `Cc1ccnc2nc(Oc3ccc(CN4C[C@H]5CC[C@@H](C4)N5C(N)=O)cc3)sc12` [Example 203, meso-3-{4-[(7-Methyl[1,3]thiazolo[4,5-b]pyridin-2-yl)oxy]benzyl}-3,8-diazabicyclo[3.2.1]octane-8-carboxamide]: the IC50 in experiment [1] was determined as 679 nM.
Regarding `CN1CCN(Cc2ccc(Oc3nc4cccnc4s3)cc2)CCC1=O` [Example 207, 4-Methyl-1-[4-([1,3]thiazolo[5,4-b]pyridin-2-yloxy)benzyl]-1,4-diazepan-5-one], in experiment [1], the IC50 came out at 1840 nM.
Take `OCCN(CCOc1ccc(Oc2nc3cccnc3s2)cc1)CC1CC1` [Example 157, 2-[(Cyclopropylmethyl){2-[4-([1,3]thiazolo[5,4-b]pyridin-2-yloxy)phenoxy]ethyl}amino]ethanol]: the IC50 in experiment [1] was determined as 114 nM.
Take `CS(=O)(=O)N1CC2CN(Cc3ccc(Oc4nc5ncc(Cl)cc5s4)cc3)CC2C1` (centres unmarked) [Example 188, 6-Chloro-2-[(4-{[5-(methylsulfonyl)hexahydropyrrolo[3,4-c]pyrrol-2(1H)-yl]methyl}phenyl)oxy][1,3]thiazolo[4,5-b]pyridine]: in experiment [1], the IC50 came out at 50 nM.
